Like-named read-outs stand apart in the source and are kept apart here.
Assays:
HIV-1 (H9/IIIB strain) = experiment: microbe, parasite or virus in culture; type: cell-based; details: MT4-GFP cells infected with HIV-1 H9/IIIB, inhibition of reproductive ratio R0
Experimental: Assessing Antiviral Potency in a Multiple Round HIV-1 Infection Assay (Viking Assay)
The antiviral activity of the tenofovir prodrugs of the Examples herein was assessed in an assay that measures the rate of replication of HIV in cell culture, termed the Viking assay (Viral KINetics in Green cells) and performed as follows. HIV-1 replication was monitored using MT4-gag-GFP clone D3 (hereafter designated MT4-GFP), which are MT-4 cells modified to harbor a GFP reporter gene, the expression of which is dependent on the HIV-1 expressed proteins tat and rev. Productive infection of an MT4-GFP cell with HIV-1 results in GFP expression approximately 24 h post-infection. MT4-GFP cells were maintained at 37° C./5% CO2/90% relative humidity in RPMI 1640 supplemented with 10% fetal bovine serum, 100 U/ml penicillin/streptomycin, and 400 μg/ml G418 to maintain the reporter gene. For infections, MT4-GFP cells were placed in the same medium lacking G418 and infected overnight with HIV-1 (H9/IIIB strain) virus at an approximate multiplicity of infection of 0.01 in the same incubation conditions. Cells were then washed and re-suspended in either RPMI 1640 supplemented with 10% or 50% normal human serum (NHS) at 1.6×10^5 cells/mL (10% NHS or 50% NHS, respectively). Compound plates were prepared by dispensing compounds dissolved in DMSO into wells of 384 well poly-D-lysine-coated plates (0.2 μl/well) using an ECHO acoustic dispenser. Each compound was tested in a 10-point serial 3-fold dilution (typical final concentrations: 8.4 μM-0.42 nM). Controls included no inhibitor (DMSO only) and a combination of three antiviral agents (efavirenz, indinavir, an in-house integrase strand transfer inhibitor at final concentrations of 4 μM each). Cells were added ([…]) to compound plates and the infected cells were maintained at 37° C./5% CO2/90% relative humidity.
Infected cells were quantified at two time points, ˜48 h and ˜72 h post-infection, by counting the number of green cells in each well using an Acumen eX3 scanner. […] Inhibition of R0 is calculated for each well, and IC50s determined by non-linear 4-parameter curve fitting.

[1] = Prodrug stability assay in bio-relevant media (FaSSIF with pancreatin; GI tract stability); type: in vitro ADME; details: parent prodrug area at 5 h divided by area at 0 h; 37° C.; 0.5 mg/mL pancreatin in FaSSIF
Experimental: Prodrug Stability Assay in Bio-Relevant Media
The following assay was employed to evaluate the stability of the prodrugs in simulated gastrointestinal tract conditions. Preparation of fasted state simulated intestinal fluid (FaSSIF) using Phares SIF Powder was carried out according to protocols from Phare Drug Delivery AG (Baselland, Switzerland). For sample preparation, 10 μL stock solutions (10 mM) of prodrug substance in DMSO was added to 990 μL of 0.5 mg/mL Pancreatin solution (Fisher CAS#8049-47-6) in FaSSIF. Two samples were prepared for each compound at initial. If the sample was clear solution at the beginning, ran one sample directly as initial by HPLC; if the sample was not clear at starting, diluted the sample by 100% ACN. Put the other sample under 37° C. and observed the sample at 5 h time-point. At 5 h time point, if the sample was clear solution then performed HPLC analysis directly; if it was not clear solution, diluted the sample by 100% ACN and assayed by HPLC. All the samples were vortexed for 3 min and observed before injection. For the diluted samples, the area will be multiplied by a factor when data analysis. The analysis was carried out with an Agilent 1100 series HPLC with autosampler. The column was usually a Poroshell 120 EC-C18, 4.6×50 mm, 2.7 μm. The flow rate was 1.8 mL/min, and the injection volume was 5 or 10 μL. UV detection was in the range 210-400 nm. The mobile phase consisted of solvent A (water plus 10 mM tetrabutylammonium bromide) and solvent B (acetonitrile) with a gradient of 90% solvent A at 0 min changing to 95% solvent B over 6 min, maintained for 1.5 min, then reverting to 90% solvent A over 1.6 min. The area of the parent in prodrug at 5 h time point was divided by the area of the parent in prodrug at 0 h time point, to generate the % claimed parent ratio, which are summarized in Table 5 for GI Tract stability.

[2] = Human immunodeficiency virus 1, 10% normal human serum, read-out: Viking, IC50 (10% NHS)
[3] = Human immunodeficiency virus 1, 50% normal human serum, read-out: Viking, IC50 (50% NHS)
[4] = 10% normal human serum, read-out: Viking, IC50 (10% NHS)
[5] = 50% normal human serum, read-out: Viking, IC50 (50% NHS)
[6] = Human immunodeficiency virus 1, IIIB, 10% normal human serum, read-out: Viking, IC50 (10% NHS)
[7] = Human immunodeficiency virus 1, IIIB, 50% normal human serum, read-out: Viking, IC50 (50% NHS)

SMILES	GI Tract stability [1]	IC50 (HIV-1 (H9/IIIB strain); [2])	IC50 (HIV-1 (H9/IIIB strain); [3])	IC50 (HIV-1 (H9/IIIB strain); [4])	IC50 (HIV-1 (H9/IIIB strain); [5])	IC50 (HIV-1 (H9/IIIB strain); [6])	IC50 (HIV-1 (H9/IIIB strain); [7])
CC(C)OC(=O)CCNP(=O)(CO[C@H](C)Cn1cnc2c(N)ncnc21)N[C@@H](C)C(=O)OC(C)C (single isomer, unassigned) [Example 7A]	98.7%	26.4 nM	44.1 nM				
CC(C)OC(=O)[C@@H](C)CNP(=O)(CO[C@H](C)Cn1cnc2c(N)ncnc21)N[C@@H](C)C(=O)OC1CCCCC1 (single isomer, unassigned) [Example 13A]	38.7%			8.7 nM	56.4 nM		
CCCCCCCOC(=O)[C@H](C)NP(=O)(CO[C@H](C)Cn1cnc2c(N)ncnc21)NC[C@H](C)C(=O)OC(C)C (single isomer, unassigned) [Example 17A]	30.5%			6.5 nM	43 nM		
CCCCCCCOC(=O)[C@H](C)NP(=O)(CO[C@H](C)Cn1cnc2c(N)ncnc21)NC[C@H](C)C(=O)OC(C)C (single isomer, unassigned) [Example 17B]	0%			2.2 nM	12 nM		
CC(C)OC(=O)C[C@@H](C)NP(=O)(CO[C@H](C)Cn1cnc2c(N)ncnc21)N[C@H](C)C(=O)OC1CCC1 (single isomer, unassigned) [Example 18A]	99.2%	65 nM	134 nM				
CC(C)OC(=O)C[C@H](C)NP(=O)(CO[C@H](C)Cn1cnc2c(N)ncnc21)N[C@H](C)C(=O)OC1CCC1 (single isomer, unassigned) [Example 19A]	100%			51.2 nM	195 nM		
CC(C)OC(=O)CCNP(=O)(CO[C@H](C)Cn1cnc2c(N)ncnc21)N[C@H](C)C(=O)OC1CCC1 (single isomer, unassigned) [Example 23B]	101%			121 nM	488 nM		
CCCCCOC(=O)C(C)(C)N[P@](=O)(CO[C@H](C)Cn1cnc2c(N)ncnc21)N[C@@H](CC(=O)OC(C)C)C(C)C (single isomer, unassigned) [Example 24A]	76%	0.8 nM	4.4 nM				
CC(C)OC(=O)C[C@H](N[P@@](=O)(CO[C@H](C)Cn1cnc2c(N)ncnc21)NC(C)(C)C(=O)OC(C)C)C(C)C (single isomer, unassigned) [Example 25A]	99.0%	4.7 nM	12 nM				
CCCCCOC(=O)C(C)(C)NP(=O)(CO[C@H](C)Cn1cnc2c(N)ncnc21)N[C@@H](C)CC(=O)OC(C)C (single isomer, unassigned) [Example 26B]	96.9%			1.5 nM	6.8 nM		
CCCCCCOC(=O)C(C)(C)NP(=O)(CO[C@H](C)Cn1cnc2c(N)ncnc21)N[C@@H](CC(=O)OC(C)C)C(C)C (single isomer, unassigned) [Example 28B]	83%			2.1 nM	5.7 nM		
CC(C)OC(=O)C[C@H](N[P@](=O)(CO[C@H](C)Cn1cnc2c(N)ncnc21)NC(C)(C)C(=O)OC(C)C)C(C)C [Example 25B]	100%	590 nM	> 2000 nM				

More lines, main results first:

GI Tract stability [1]	SMILES	IC50 (HIV-1 (H9/IIIB strain); [2])	IC50 (HIV-1 (H9/IIIB strain); [3])	IC50 (HIV-1 (H9/IIIB strain); [4])	IC50 (HIV-1 (H9/IIIB strain); [5])	IC50 (HIV-1 (H9/IIIB strain); [6])	IC50 (HIV-1 (H9/IIIB strain); [7])
89.5%	CC(C)OC(=O)C[C@H](C)NP(=O)(CO[C@H](C)Cn1cnc2c(N)ncnc21)N[C@@H](C)C(=O)OC(C)C (single isomer, unassigned) [Example 8A]			26.5 nM	38.2 nM		
99.6%	CC(C)OC(=O)C[C@@H](C)NP(=O)(CO[C@H](C)Cn1cnc2c(N)ncnc21)N[C@@H](C)C(=O)OC(C)C (single isomer, unassigned) [Example 9A]			25.3 nM	66.7 nM		
54.8%	CC(C)OC(=O)[C@H](C)CNP(=O)(CO[C@H](C)Cn1cnc2c(N)ncnc21)N[C@@H](C)C(=O)OC(C)C (single isomer, unassigned) [Example 10A]			10.6 nM	97.2 nM		
76.4%	CC(C)OC(=O)[C@@H](C)CNP(=O)(CO[C@H](C)Cn1cnc2c(N)ncnc21)N[C@@H](C)C(=O)OC1CCCC1 (single isomer, unassigned) [Example 11B]			20.9 nM	68.4 nM		
37.7%	CC(C)OC(=O)[C@@H](C)CNP(=O)(CO[C@H](C)Cn1cnc2c(N)ncnc21)N[C@@H](C)C(=O)OC1CCC1 (single isomer, unassigned) [Example 12B]			20.9 nM	63.2 nM		
38.3%	CC(C)COC(=O)[C@H](C)NP(=O)(CO[C@H](C)Cn1cnc2c(N)ncnc21)NC[C@H](C)C(=O)OC(C)C (single isomer, unassigned) [Example 14A]					16.6 nM	70.2 nM
60.6%	CC(C)COC(=O)[C@H](C)NP(=O)(CO[C@H](C)Cn1cnc2c(N)ncnc21)NC[C@H](C)C(=O)OC(C)C (single isomer, unassigned) [Example 14B]			15.7 nM	51.6 nM		
65.8%	CCCCOC(=O)[C@H](C)NP(=O)(CO[C@H](C)Cn1cnc2c(N)ncnc21)NC[C@H](C)C(=O)OC(C)C (single isomer, unassigned) [Example 15B]			11.7 nM	79.4 nM		
12.7%	CCCCCOC(=O)[C@H](C)NP(=O)(CO[C@H](C)Cn1cnc2c(N)ncnc21)NC[C@H](C)C(=O)OC(C)C (single isomer, unassigned) [Example 16A]					6.1 nM	18.6 nM
56.2%	CCCCCOC(=O)[C@H](C)NP(=O)(CO[C@H](C)Cn1cnc2c(N)ncnc21)NC[C@H](C)C(=O)OC(C)C (single isomer, unassigned) [Example 16B]			7.3 nM	28.3 nM		
99.3%	CC(C)OC(=O)[C@@H](C)CNP(=O)(CO[C@H](C)Cn1cnc2c(N)ncnc21)N[C@H](C)C(=O)OC1CCC1 (single isomer, unassigned) [Example 20B]			112 nM	432 nM		
99.2%	CC(C)OC(=O)[C@@H](C)CNP(=O)(CO[C@H](C)Cn1cnc2c(N)ncnc21)N[C@H](C)C(=O)OC1CCCC1 (single isomer, unassigned) [Example 22B]			83.8 nM	291 nM		

From US9822138B2, “Antiviral beta-amino acid ester phosphodiamide compounds” (Merck Sharp & Dohme Corp., priority 2015, dated 2017)
